Where only a bound is given, the exact number is not on record here.

As to `CC(=O)OCC1=CCc2c(cc(O)c3c(=O)cc(C)oc23)OC1` [Compound 2, 8,11-Dihydro-5-hydroxy-12-hydroxymethyl-2-methyl-4H-pyrano[2,3-g][1]benzoxepin-4-one 12-O-acetate], the Cytotoxicity LC50 in the data set on human liver (C3A) cells and in the data set with Vero monkey kidney cells was above 200 µg/mL in each case.

For the origin of these results see patent US9682114B2, “Plant extracts of Ptaeroxylon obliquum nand compounds having antimicrobial and antihelminthic activity” (UNIVERSITY OF PRETORIA, priority 2013, dated 2017).
